Data from US9445594B2, “Molecules having certain pesticidal utilities, intermediates, compositions, and processes, related thereto” (priority 2014, dated 2016).
Read-outs that look alike come from different tables or passages of the source.

Columns and labels:
Type in all cases: in vivo
[1] = test system: Yellow Fever Mosquito (Aedes aegypti, AEDSAE) ("YFM"); assay: Bioassays on YFM, 96-well plate larval assay; conditions: about 1 day-old larvae, from 4000 ppm DMSO master plate diluted, room temperature, scored after 3 days
Method: Certain molecules disclosed in this document were tested against YFM using procedures described in the following paragraph. In the reporting of the results, the “YFM Rating Table” was used (See Table Section).
Master plates containing 400 μg of a molecule dissolved in 100 μL of dimethyl sulfoxide (DMSO) (equivalent to a 4000 ppm solution) are used. A master plate of assembled molecules contains 15 μL per well. To this plate, 135 μL of a 90:10 water:acetone mixture is added to each well. A robot (Biomek® NXP Laboratory Automation Workstation) is programmed to dispense 15 μL aspirations from the master plate into an empty 96-well shallow plate (“daughter” plate). There are 6 reps (“daughter” plates) created per master. The created daughter plates are then immediately infested with YFM larvae.
The day before plates are to be treated, mosquito eggs are placed in Millipore water containing liver powder to begin hatching (4 g. into 400 mL). After the daughter plates are created using the robot, they are infested with 220 μL of the liver powder/larval mosquito mixture (about 1 day-old larvae). After plates are infested with mosquito larvae, a non-evaporative lid is used to cover the plate to reduce drying. Plates are held at room temperature for 3 days prior to grading. After 3 days, each well is observed and scored based on mortality.

[2] = test system: Beet Armyworm (Spodoptera exigua, LAPHEG) ("BAW"); assay: Bioassays on BAW, 128-well diet tray assay; conditions: 168 h, read-out: BAW % Control (or Mortality) rating
Method: (§1) Certain molecules disclosed in this document were tested against BAW, CEW, and CL using procedures described in the following examples. In the reporting of the results, the “BAW, CEW, & CL Rating Table” was used (See Table Section).
Bioassays on BAW were conducted using a 128-well diet tray assay. one to five second instar BAW larvae were placed in each well (3 mL) of the diet tray that had been previously filled with 1 mL of artificial diet to which 50 μg/cm^2 of the test compound (dissolved in 50 μL of 90:10 acetone-water mixture) had been applied (to each of eight wells) and then allowed to dry. Trays were covered with a clear self-adhesive cover and held at 25° C., 14:10 light-dark for five to seven days. Percent mortality was recorded for the larvae in each well; activity in the eight wells was then averaged. The results are indicated in the table entitled “Table ABC: Biological Results” (See Table Section).

[3] = test system: Cabbage Looper (Trichoplusia ni, TRIPNI) ("CL"); assay: Bioassays on CL, 128-well diet tray assay; conditions: 168 h, read-out: CL % Control (or Mortality) rating
Method: as §1
Bioassays on CL were conducted using a 128-well diet tray assay. one to five second instar CL larvae were placed in each well (3 mL) of the diet tray that had been previously filled with 1 mL of artificial diet to which 50 μg/cm^2 of the test compound (dissolved in 50 μL of 90:10 acetone-water mixture) had been applied (to each of eight wells) and then allowed to dry. Trays were covered with a clear self-adhesive cover and held at 25° C., 14:10 light-dark for five to seven days. Percent mortality was recorded for the larvae in each well; activity in the eight wells was then averaged. The results are indicated in the table entitled “Table ABC: Biological Results” (See Table Section).

[4] = second instar larvae, 50 μg/cm^2 on artificial diet, 25° C., five to seven days, average of eight wells

Row | Compound | YFM % Control (or Mortality) rating [1] | mortality at 50 µg/cm2 [2, 4] [%] | mortality at 50 µg/cm2 [3, 4] [%] | mortality at 50 µg/cm2 [2] [%] | mortality at 50 µg/cm2 [3] [%]
1 | CC(C)c1ccccc1NC(=O)NCCCc1ccc(-c2ncn(-c3ccc(OC(F)(F)F)cc3)n2)cc1 [F78, 1-(2-Isopropylphenyl)-3-(3-(4-(1-(4-(trifluoromethoxy)phenyl)-1H-1,2,4-triazol-3-yl)phenyl)propyl)urea] | A (80-100) | 50 to 100 | 50 to 100 | – | –
2 | O=C(NCc1ccc(-c2ncn(-c3ccc(OC(F)(F)F)cc3)n2)cc1)Nc1cccc(Cl)c1 [F103, 1-(3-Chlorophenyl)-3-(4-(1-(4-(trifluoromethoxy)phenyl)-1H-1,2,4-triazol-3-yl)benzyl)urea] | A (80-100) | 0 to 50 | 50 to 100 | – | –
3 | CC(C)c1ccccc1NC(=S)NCCCCc1ccc(-c2ncn(-c3ccc(OC(F)(F)F)cc3)n2)cc1 [F88, 1-(2-Isopropylphenyl)-3-(4-(4-(1-(4-(trifluoromethoxy)phenyl)-1H-1,2,4-triazol-3-yl)phenyl)butyl)thiourea] | A (80-100) | 50 to 100 | 50 to 100 | – | –
4 | O=C(Nc1ccc(-c2ncn(-c3ccc(OC(F)(F)F)cc3)n2)cc1)Nc1ccccc1C1CC1C1CC1 (stereo not drawn) [F49, 1-(2-([1,1′-Bi(cyclopropan)]-2-yl)phenyl)-3-(4-(1-(4-(trifluoromethoxy)phenyl)-1H-1,2,4-triazol-3-yl)phenyl)urea] | D (No activity noticed in this bioassay) | 0 to 50 | 50 to 100 | – | –
5 | CC(C)c1ccccc1NC(=O)NCCCCc1ccc(-c2ncn(-c3ccc(OC(F)(F)F)cc3)n2)cc1 [F90, 1-(2-Isopropylphenyl)-3-(4-(4-(1-(4-(trifluoromethoxy)phenyl)-1H-1,2,4-triazol-3-yl)phenyl)butyl)urea] | D (No activity noticed in this bioassay) | 0 | 0 | – | –
6 | O=C(NCCCCc1ccc(-c2ncn(-c3ccc(OC(F)(F)F)cc3)n2)cc1)Nc1cccc(Cl)c1 [F93, 1-(3-Chlorophenyl)-3-(4-(4-(1-(4-(trifluoromethoxy)phenyl)-1H-1,2,4-triazol-3-yl)phenyl)butyl)urea] | D (No activity noticed in this bioassay) | 0 | 50 to 100 | – | –
7 | CSc1ccccc1-c1cccnc1NC(=O)Nc1ccc(-c2ncn(-c3ccc(OC(F)(F)F)cc3)n2)cc1 [F59, 1-(3-(2-(Methylthio)phenyl)pyridin-2-yl)-3-(4-(1-(4-(trifluoromethoxy)phenyl)-1H-1,2,4-triazol-3-yl)phenyl)urea] | D (No activity noticed in this bioassay) | 50 to 100 | 50 to 100 | – | –
8 | O=C(NCCCCc1ccc(-c2ncn(-c3ccc(OC(F)(F)F)cc3)n2)cc1)Nc1ccc(Cl)cc1 [F94, 1-(4-Chlorophenyl)-3-(4-(4-(1-(4-(trifluoromethoxy)phenyl)-1H-1,2,4-triazol-3-yl)phenyl)butyl)urea] | D (No activity noticed in this bioassay) | 0 | 50 to 100 | – | –
9 | O=C(Nc1ccc(-c2ncn(-c3ccc(OC(F)(F)F)cc3)n2)cc1)Nc1ccccc1OC(F)(F)F [F26, 1-(2-(Trifluoromethoxy)phenyl)-3-(4-(1-(4-(trifluoromethoxy)phenyl)-1H-1,2,4-triazol-3-yl)phenyl)urea] | D (No activity noticed in this bioassay) | 50 to 100 | 50 to 100 | – | –
10 | COc1cccc(NC(=O)NCc2ccc(-c3ncn(-c4ccc(OC(F)(F)F)cc4)n3)cc2)c1 [F107, 1-(3-Methoxyphenyl)-3-(4-(1-(4-(trifluoromethoxy)phenyl)-1H-1,2,4-triazol-3-yl)benzyl)urea] | B (More than 0 - Less than 80) | 0 | 0 | – | –
11 | O=C(Nc1ccc(-c2ncn(-c3ccc(OC(F)(F)F)cc3)n2)cc1)Nc1ccccc1Cc1ccccc1 [F51, 1-(2-Benzylphenyl)-3-(4-(1-(4-(trifluoromethoxy)phenyl)-1H-1,2,4-triazol-3-yl)phenyl)urea] | D (No activity noticed in this bioassay) | 0 to 50 | 0 to 50 | – | –
12 | CSc1ccccc1-c1ccccc1NC(=S)Nc1ccc(-c2ncn(-c3ccc(OC(F)(F)F)cc3)n2)cc1 [F42, 1-(2′-(Methylthio)-[1,1′-biphenyl]-2-yl)-3-(4-(1-(4-(trifluoromethoxy)phenyl)-1H-1,2,4-triazol-3-yl)phenyl)thiourea] | B (More than 0 - Less than 80) | 50 to 100 | 50 to 100 | – | –
13 | COc1ccc(NC(=O)NCCCCc2ccc(-c3ncn(-c4ccc(OC(F)(F)F)cc4)n3)cc2)cc1 [F97, 1-(4-Methoxyphenyl)-3-(4-(4-(1-(4-(trifluoromethoxy)phenyl)-1H-1,2,4-triazol-3-yl)phenyl)butyl)urea] | D (No activity noticed in this bioassay) | 0 to 50 | 0 | – | –
14 | COc1ccccc1NC(=O)NCCCCc1ccc(-c2ncn(-c3ccc(OC(F)(F)F)cc3)n2)cc1 [F95, 1-(2-Methoxyphenyl)-3-(4-(4-(1-(4-(trifluoromethoxy)phenyl)-1H-1,2,4-triazol-3-yl)phenyl)butyl)urea] | D (No activity noticed in this bioassay) | 0 | 50 to 100 | – | –
15 | CCc1ccccc1NC(=O)NCCCCc1ccc(-c2ncn(-c3ccc(OC(F)(F)F)cc3)n2)cc1 [F98, 1-(2-Ethylphenyl)-3-(4-(4-(1-(4-(trifluoromethoxy)phenyl)-1H-1,2,4-triazol-3-yl)phenyl)butyl)urea] | D (No activity noticed in this bioassay) | 0 to 50 | 0 | – | –
16 | O=C(NCc1ccc(-c2ncn(-c3ccc(OC(F)(F)F)cc3)n2)cc1)Nc1ccc(Cl)cc1 [F105, 1-(4-Chlorophenyl)-3-(4-(1-(4-(trifluoromethoxy)phenyl)-1H-1,2,4-triazol-3-yl)benzyl)urea] | B (More than 0 - Less than 80) | 50 to 100 | 50 to 100 | – | –
17 | O=C(Nc1ccc(-c2ncn(-c3ccc(OC(F)(F)F)cc3)n2)cc1)Nc1ccccc1C(F)(F)F [F64, 1-(4-(1-(4-(trifluoromethoxy)phenyl)-1H-1,2,4-triazol-3-yl)phenyl)-3-(2-(trifluoromethyl)phenyl)urea] | B (More than 0 - Less than 80) | 50 to 100 | 50 to 100 | – | –
18 | Cc1cccc(NC(=O)NCc2ccc(-c3ncn(-c4ccc(OC(F)(F)F)cc4)n3)cc2)c1 [F108, 1-(m-Tolyl)-3-(4-(1-(4-(trifluoromethoxy)phenyl)-1H-1,2,4-triazol-3-yl)benzyl)urea] | D (No activity noticed in this bioassay) | 0 | 0 | – | –
19 | Cc1ccc(NC(=O)NCc2ccc(-c3ncn(-c4ccc(OC(F)(F)F)cc4)n3)cc2)cc1 [F102, 1-(p-Tolyl)-3-(4-(1-(4-(trifluoromethoxy)phenyl)-1H-1,2,4-triazol-3-yl)benzyl)urea] | D (No activity noticed in this bioassay) | 0 | 0 | – | –
20 | CC(C)c1ccccc1NC(=S)NCCCc1ccc(-c2ncn(-c3ccc(OC(F)(F)F)cc3)n2)cc1 [F76, 1-(2-isopropylphenyl)-3-(3-(4-(1-(4-(trifluoromethoxy)phenyl)-1H-1,2,4-triazol-3-yl)phenyl)propyl)thiourea] | A (80-100) | – | – | 50 to 100 | 50 to 100
